According to patent US20110269826A1, “Method” (priority 2008, published 2011):

Tested on: MPTP primates
Experiment: Dyskinesia and locomotor studies in drug-naive MPTP primates incl. L-Dopa and apomorphine challenge
Protocol: Evaluation of dyskinesias was performed in the efficacy studies describe above using a novel method for dyskinesia quantification based on video dyskinesia analysis (VDA) that assesses the whole range of dyskinetic movement continuously during the observed video sequence, using a standardized protocol.
To mimic clinical conditions, these drug-naive animals were further challenged with acute systemic administration of L-Dopa then with a pro-dyskinetic short-acting D1/D2 dopaminergic agonist (apomorphine).
Experimental Design. Neurotoxin MPTP was first administrated to 23 macaques until they developed severe Parkinsonism, these were then divided into experimental groups according to the following experiments: • 1. […] Animals were then challenged with L-Dopa and the number of dyskinesias was assessed with a specific software (The Observer®, Noldus)
Behaviour. All animals were assessed daily for their general clinical condition with special attention paid to the nutritional status. At the same time, the general neurological state of each macaque was assessed both pre- and post-lentiviral injections. To objectively quantify our neurological observations, animals were video-taped for 30 minutes before MPTP lesioning and at regular intervals following viral injections. The videos were then analyzed off-line by an examiner blinded to the experimental conditions. […]

CN1CCc2cccc3c2[C@H]1Cc1ccc(O)c(O)c1-3 [apomorphine]
dyskinesia induced by the drug in drug naive MPTP animals (acute systemic administration, no therapeutic vector): induced hyperkinetic behaviour with numerous dyskinetic movements | locomotor activity of MPTP-long term and MPTP-LacZ primates after the drug (oral L-Dopa / apomorphine injection, to levels similar to normal primates, p<0.05): improved the locomotor activity
